Experiment [1] has as its system fibroblasts isolated from human tunica albuginea (TA); TGF-β1-induced myofibroblast transformation. Kind of experiment: In Cell ELISA (ICE) phenotypic screening assay of TGF-β1-induced myofibroblast transformation (α-SMA/DNA staining). The experiment is classed as cell-based. As to conditions: for IC50: co-incubation with 10 ng/ml TGF-β1 for 72 hours, α-SMA/DNA staining ratio, read-out: IC50, inhibition of TGF-β1-induced myofibroblasts transformation. From the text:
Tunica albuginea tissue samples were collected from patients undergoing surgery at University College London Hospital (UCLH), London, UK for penile cancer or PD. All patients gave fully informed written consent to the study. The study was approved by independent research ethics committees (NRES Committee East of England 12/EE/0170 and NRES Committee North of Scotland 15/NS/0051). PD plaque tissue was obtained from patients with chronic PD undergoing a Lue procedure (plaque incision and grafting). Plaque tissue would have otherwise been discarded. Non-plaque TA was obtained from PD patients undergoing a Nesbit procedure whereby non-fibrotic TA tissue was excised from the opposite side of the plaque. TA tissue samples from patients with penile cancer were taken from the proximal side away from the tumour, with the tumour showing negative margins on histological examination.
Tissue samples were carefully dissected to ensure that all cavernosal tissue was removed from the tunica albuginea (TA). To establish fibroblast cultures, TA fragments were seeded in 6-well tissue culture plates (Nunc, Fisher Scientific, UK) as described previously16. The tissue pieces were incubated in DMEM-F12 (GIBCO, Invitrogen, UK) containing 10% FCS (Fisher Scientific, UK) and 1% penicillin-streptomycin (GIBCO, Invitrogen, UK) at 37° C., 5% CO2 for 5-7 days. Tissue fragments were carefully removed using forceps upon outgrowth of cells. Passages 2 to 4 were used for the rest of the experiments.
Cells were seeded onto 96 well optical flat bottom black microplates (Nunc, Fisher Scientific, UK) at 5×10^3 cells per well. After overnight attachment they were incubated with or without 10 ng/ml TGF-β1 for 72 hours. The cells were then fixed using 4% paraformaldehyde, and blocked with 10% donkey serum and 0.1% Triton X-100 in PBS. The cells were then incubated with anti-α-SMA antibody (1:3,000; Sigma Aldrich, UK) for 2 h. Afterwards cells were incubated with donkey anti-mouse secondary antibody conjugated to an infrared dye which emits at 800 nm (1:500; IRdye 800CW; Li-Cor, UK) and a nuclear counterstain at that emits at 700 nm (1:1,000; DRAQS, Biostatus, UK) for 1 h. The plate was scanned using an infrared imaging system (Odyssey CLx imager, LI-COR, UK) at both the 700 nm and 800 nm wavelengths.
We have isolated primary fibroblasts from the plaque and non-plaque TA of patients with PD. We also isolated primary fibroblasts from TA of patients with penile cancer as non-fibrotic controls.
(In general: An ELISA detects its analyte on a solid surface through an enzyme-linked reagent.)

In experiment [2] the test system is TGF-β1 injection into the rat TA (animal model for PD). The experiment can be described thus: Animal model for PD: assessment of erectile function (intracavernous pressure, ICP). The experiment is classed as in vivo, Male Sprague-Dawley rats. The conditions noted are these: tamoxifen 5 mg/kg/day i.p., vardenafil 1.5 mg/kg/day drinking water, 5 weeks.
The test system of experiment [3] is TGF-β1 injection into the rat TA (animal model for PD), penile fibrosis. The experiment can be described thus: Animal model for PD: molecular and histological analysis of penile tissue (qPCR, Western blot, immunohistochemistry). The class given is in vivo, Male Sprague-Dawley rats. From the text: The animal model for PD was first described by […] Lue^18 and modified by Bivalacqua and Hellstrom^19. Male Sprague-Dawley rats (10-12 weeks old) were housed in a regulated environment with a 12-hour light/dark cycle in a standard experimental laboratory. The animals had free access to food and water ad libitum. Fifty male Sprague-Dawley rats were divided into 5 groups: A: sham (injection of vehicle citrate buffer), B: […] Treatment was initiated at the day after injury and continued for 5 weeks followed by a 48 hours wash-out period. The High-Capacity cDNA Reverse Transcription Kit (Applied Biosystems) was used according to the manufacturer's instructions to transcribe RNA to cDNA. One μg in 10 μl were added to 10 μl of the master mix for reverse transcription for a total reaction volume of 20 μl. After reverse transcription the cDNA was diluted 1:10 for qPCR. The Applied BiosystemsTM TaqManTM Fast Advanced Master Mix was used for qPCR. Gene specific primer pairs for GAPDH, beta-actin, alpha smooth muscle actin, elastin, and collagens I, III, and V were purchased from Applied Biosystems. […] Data was analysed using the 2-ΔΔCt method for relative quantifications. […] Statistical significance, unless otherwise stated, was calculated using one or two-way ANOVA and Student's t-test for unpaired means (two-sided). […]
(Quantitative PCR measures a nucleic acid by following its amplification.)

In experiment [4] the test system is TGF-β1-induced myofibroblast collagen contraction, TA-derived fibroblasts. Kind of experiment: Collagen gel contraction assay (fibroblast populated collagen lattices). The experiment is classed as cell-based, human. As to conditions: 10 ng/ml TGF-β1; lattices released after 72 h, contraction observed for 8 h. On the procedure: Images were analysed using ImageJ software by measuring the surface area of the contracting lattice. Contraction was calculated as percentage of the surface of the unreleased lattice. Data is shown as percentage of maximum contraction of vehicle control. The two classes of drugs were then tested in functional assays. Firstly, we tested their efficacy in inhibiting collagen gel contraction as a measure of myofibroblast contractility; a characteristic function of myofibroblasts, which separates them from fibroblasts. […] Secondly, we tested the drugs' efficacy in inhibiting ECM protein production, which is again one of the critical characteristic functions of myofibroblasts. […] FIG. 4).

Experiment [5] concerns TGF-β1-induced myofibroblast ECM protein production, cells derived from TA tissue. Kind of experiment: ECM production assay. The experiment is classed as cell-based. The conditions noted are these: Homo sapiens, 168 h, 10 ng/ml TGF-β1 for 7 days. On the procedure: Cells were seeded onto 96 well optical flat bottom black microplates (Nunc, Fisher Scientific, UK) at 5×10^3 cells per well. After overnight attachment, they were stimulated with or without 10 ng/ml TGF-β1 and/or compounds for 7 days. DRAQS in PBS (1:1,000) was added and cells were incubated for 5 min at 37° C., 5% CO2 before scanning the plate to obtain nuclear staining. […] Afterwards ECM was stained either with Coomassie Blue (total ECM) overnight at 4° C. or with primary antibodies (collagen I, abcam; collagen III, Millipore; collagen V, abcam: fibronectin, Millipore) at 1:1000 for 1 h on a shaker, followed by incubation with secondary antibody and scanning the plate using an infrared imaging system (Odyssey CLx imager, LI-COR, UK) at both the 700 nm and 800 nm wavelengths. Results were normalized to the cell number before lysis.

Where [6] appears, read: Homo sapiens, Fibroblast, read-out: Percentage of inhibition of TGF-β1 induced myofibroblast transformation, Tamoxifen only, 10 ng/ml TGF-β1, 72 hours.
The mark [7] stands for this setting: Homo sapiens, Fibroblast, 10 ng/ml TGF-β1, 72 hours, read-out: Percentage of inhibition of TGF-β1 induced myofibroblast transformation, Vardenafil only.

Six molecules from US20200108069A1, “Treatment of Fibrotic Conditions” (ANGLIA RUSKIN UNIVERSITY HIGHER EDUCATION CORPORATION, priority 2018, published 2020) can be followed below.

Where two headings read alike, the source gives them in different places.

Broadly, the IC50 is the concentration that gives 50% inhibition. Consider `Cc1cccc(-c2[nH]c(C(C)(C)C)nc2-c2ccc3c(c2)OCO3)n1` [SB505124], for which the IC50 in experiment [1] was determined as 0.6 µM.
Take `O=C(c1ccc(OCCN2CCCCC2)cc1)c1c(-c2ccc(O)cc2)sc2cc(O)ccc12` [raloxifene]: in experiment [1], the half-maximal inhibitory concentration (IC50) was determined as 7 µM.
`CCCc1nn(C)c2c(=O)[nH]c(-c3cc(S(=O)(=O)N4CCN(C)CC4)ccc3OCC)nc12` [sildenafil]: the IC50 in experiment [1] (Homo sapiens, Fibroblast) worked out at 15 µM.
On to `CN1CC(=O)N2[C@H](c3ccc4c(c3)OCO4)c3[nH]c4ccccc4c3C[C@@H]2C1=O` [tadalafil], for which the IC50 in experiment [1] (Homo sapiens, Fibroblast) worked out at 3.5 µM.
As usually defined, the inhibition is the drop in the measured response relative to a control, in per cent. `CC/C(=C(\c1ccccc1)c1ccc(OCCN(C)C)cc1)c1ccccc1` [tamoxifen]: in experiment [2], the “TGF-β1-induced decrease in erectile function (ICP) by 55%” value is recorded as “prevented”. The “Percentage of inhibition of TGF-β1 induced myofibroblast transformation, Tamoxifen only” value in experiment [1] (100 μM, 10 ng/ml TGF-β1, 72 hours) is reported as “cell death”. For the same molecule, in experiment [1] (setting [6]), the inhibition at 0.3 µM worked out at 10 ± 3%, the inhibition at 1 µM came to 10 ± 2%, the inhibition at 3 µM amounted to 10 ± 3% and the inhibition at 10 µM came out at 25 ± 3%. For the same molecule, in experiment [3] (5 weeks treatment, qPCR), the “TGF-β1-induced upregulation of collagen expression (collagens I, III, V mRNA) in penile tissue” value was “prevented”. The “penile fibrosis in an animal model for PD” value in experiment [3] (FIG. 5) was “ameliorate penile fibrosis”. In addition, the “concentration at which TGF-β1-induced contraction of collagen was inhibited” value in experiment [4] came to 1 µM.
Regarding `CCCc1nc(C)c2c(=O)[nH]c(-c3cc(S(=O)(=O)N4CCN(CC)CC4)ccc3OCC)nn12` [vardenafil], the inhibition at 0.3 µM in experiment [1] (setting [7]) came out at 3 ± 3%. Also, the inhibition at 1 µM in experiment [1] (setting [7]) was found to be 10 ± 1%. Further, the inhibition at 3 µM in experiment [1] (setting [7]) came out at 8 ± 2%. Besides, in experiment [1] (setting [7]), the inhibition at 10 µM was 17 ± 2%. The inhibition at 30 µM in experiment [1] (Homo sapiens, Fibroblast, 30 μM, 10 ng/ml TGF-β1, 72 hours, read-out: Percentage of inhibition of TGF-β1 induced myofibroblast transformation, Vardenafil only) was found to be 25 ± 1%. Further, the inhibition at 100 µM in experiment [1] (Homo sapiens, Fibroblast, 100 μM, 10 ng/ml TGF-β1, 72 hours, read-out: Percentage of inhibition of TGF-β1 induced myofibroblast transformation, Vardenafil only) came to 48 ± 1%. Besides, the IC50 came to 30 µM in experiment [1] (Homo sapiens, Fibroblast); 23 µM in experiment [5] (read-out: IC50, TGF-β1-induced ECM protein production: collagen I); 17 µM in experiment [5] (read-out: IC50, TGF-β1-induced ECM protein production: collagen III); 23 µM in experiment [5] (read-out: IC50, TGF-β1-induced ECM protein production: collagen V); 44 µM in experiment [5] (read-out: IC50, TGF-β1-induced ECM protein production: fibronectin). Also, the “concentration at which TGF-β1-induced contraction of collagen was inhibited” value in experiment [4] was found to be 10 µM.
